# Reference: paper PMC8623418, “Novel Multitarget Hydroxamic Acids with a Natural Origin CAP Group against Alzheimer’s Disease: Synthesis, Docking and Biological Evaluation” (Pharmaceutics, 2021)
# How the values were obtained:
# β-amyloid 1–40 = β-amyloid 1–40 aggregation, Thioflavin T fluorescence; assay type: biochemical; settings: 100 μM, 72 h incubation
# Procedure: (§1) The effect of the studied compounds on the aggregation of β-amyloid (1–40/1–42) was analyzed using the method of recording Thioflavin T fluorescence (10 µM) for 72 h at 37 °C. The fluorescence signal was measured using a multifunctional flatbed analyzer, the Cytation ™ 3 (BioTek Instruments, Inc., Winooski, VT, USA), at λex = 450 nm, λem = 480 nm.
# (§2) The effect of hydroxamic acids on the stage of aggregation of the pathological β-amyloid peptide was investigated for 72 h using two model systems—fragments Aβ1–40 and Aβ1–42. The fluorophore Thioflavin T was used as an indicator of the ongoing fibrillation process, the interaction of which with proteins in the state of amyloid fibrils leads to an increase in the fluorescence signal.
# [1] = DPPH test of antiradical activity; settings: substances at 100 μM, mean ± SEM
# Procedure: The DPPH test was used to examine antiradical activity based on the ability of a stable chromogen radical of 2,2-diphenyl-1-picrylhydrazyl (DPPH) to remove a hydrogen atom, which is accompanied by a change in the absorption maximum in the electronic absorption spectra. The amount of reduced DPPH was measured using a Cytation ™ 3 multifunctional plate analyzer (BioTek Instruments, Inc., Winooski, VT, USA) at a wavelength of 517 nm.
# The antiradical activity of the test compounds was evaluated by the DPPH test, based on the ability of antioxidants to donate an electron to the stable chromogen radical DPPH, converting it into a nonradical form and neutralizing its activity. […] The chromogenic free radical DPPH used in this test has a large size, and substances even with a similar chemical structure may have different antiradical properties due to spatially difficult access.
# SH-SY5Y cells = assay: MTT cell viability, SH-SY5Y; assay type: cell-based; settings: Homo sapiens, MTT test
# Procedure: (§3) The effect of the hydroxamic acids on the viability of cells obtained from human embryonic kidneys, HEK 293, as well as the native form of human neuroblastoma, SH-SY5Y, was evaluated in the MTT test. Using a multifunctional flatbed analyzer, Cytation™3 (BioTek Instruments, Inc., Winooski, VT, USA), the optical density was determined at a wavelength of 530 nm. Based on the dose-dependent curves, the concentration values leading to 50% inhibition of cell population growth (IC50) were calculated.
# (§4) Due to the fact that most compounds of the class of hydroxamic acids have high cytotoxic activity and are mainly used as anticancer drugs, their use as neuroprotective drugs is limited. Since the goal of our work was to search for agents for the pharmacological correction of neurodegenerative diseases, a necessary part of the biological activity study of the synthesized hydroxamic acids was to determine their effect on the survival of cell cultures. In our work, we used neuron-like neuroblastoma cells SH-SY5Y and a healthy cell line isolated from the human embryonic kidney, HEK 293.
# β-amyloid 1–42 = tested on: T1, β-amyloid 1–42; assay: β-amyloid 1–42 aggregation, Thioflavin T fluorescence; assay type: biochemical; settings: 100 μM, 72 h incubation
# T1 construct: fragments Aβ1–40 and Aβ1–42
# Procedure: as §1, §2
# HDAC6 = target: T2, HDAC6 (Homo sapiens, UniProt Q9UBN7); assay: HDAC6 enzyme activity, FLUOR DE LYS fluorometric kit; assay type: biochemical; settings: mean ± SEM; read-out: IC50 HDAC6 Inhibitory Activity
# T2 construct: purchased Enzo Life Sciences (Enzo Biochem, New York, NY, USA)
# T2 sequence (Q9UBN7 1-1215): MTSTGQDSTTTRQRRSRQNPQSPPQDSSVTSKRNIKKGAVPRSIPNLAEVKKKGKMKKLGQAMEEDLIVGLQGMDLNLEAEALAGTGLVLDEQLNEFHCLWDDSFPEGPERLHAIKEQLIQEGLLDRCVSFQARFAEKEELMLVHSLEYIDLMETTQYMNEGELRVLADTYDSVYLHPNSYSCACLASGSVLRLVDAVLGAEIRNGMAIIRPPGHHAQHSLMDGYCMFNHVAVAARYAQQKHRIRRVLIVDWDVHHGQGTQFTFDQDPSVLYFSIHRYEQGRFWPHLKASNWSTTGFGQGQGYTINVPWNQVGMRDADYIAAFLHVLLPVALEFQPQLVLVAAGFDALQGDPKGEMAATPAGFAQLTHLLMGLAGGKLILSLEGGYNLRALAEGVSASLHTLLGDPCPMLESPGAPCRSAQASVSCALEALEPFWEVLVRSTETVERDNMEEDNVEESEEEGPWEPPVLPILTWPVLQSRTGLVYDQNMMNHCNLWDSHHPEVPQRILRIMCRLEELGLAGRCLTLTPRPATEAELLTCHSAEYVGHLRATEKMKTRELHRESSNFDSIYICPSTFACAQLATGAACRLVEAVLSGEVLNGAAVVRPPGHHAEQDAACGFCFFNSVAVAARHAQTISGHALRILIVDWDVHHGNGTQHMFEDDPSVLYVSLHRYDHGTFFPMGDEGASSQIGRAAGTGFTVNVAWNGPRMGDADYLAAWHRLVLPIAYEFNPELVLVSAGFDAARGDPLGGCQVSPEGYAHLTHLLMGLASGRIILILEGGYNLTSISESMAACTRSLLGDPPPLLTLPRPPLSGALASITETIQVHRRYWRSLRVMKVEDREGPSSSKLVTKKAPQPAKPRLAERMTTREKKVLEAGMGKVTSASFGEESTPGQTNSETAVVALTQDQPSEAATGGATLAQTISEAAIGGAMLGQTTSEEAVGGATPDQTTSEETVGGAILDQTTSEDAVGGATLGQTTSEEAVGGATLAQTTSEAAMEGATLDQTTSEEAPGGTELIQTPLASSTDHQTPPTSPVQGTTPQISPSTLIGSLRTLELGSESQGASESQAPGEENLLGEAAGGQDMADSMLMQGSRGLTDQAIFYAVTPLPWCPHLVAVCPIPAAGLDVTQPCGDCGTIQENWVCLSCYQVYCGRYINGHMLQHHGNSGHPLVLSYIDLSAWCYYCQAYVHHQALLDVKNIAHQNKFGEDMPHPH
# [2] = tested on: lipid peroxidation (LPO) of rat brain homogenate; assay: Lipid peroxidation (LPO) of rat brain homogenate, TBARS test; assay type: biochemical; settings: substances at 100 μM, mean ± SEM; for % of Activity, Inhibition of LPO, Fe (II): Fe (II)-induced; for % of Activity, Inhibition of LPO, t-BHP: t-BHP-induced
# Procedure: To obtain the brain homogenate, rats preliminarily anesthetized with CO2 were decapitated with a guillotine. The brain was homogenized in a buffer containing KCl (120 mM) and HEPES (20 mM), pH = 7.4 at 4 °C, and centrifuged at 1500 rpm to obtain a supernatant. The protein was quantified according to the standard microbiuret method.
# To investigate the effect of the compounds on lipid peroxidation (LPO) of rat brain homogenate, we used the modified version of the TBARS test, which is based on the reaction of 2-thiobarbituric acid with the end LPO product—malonic dialdehyde (MDA). The plate well, according to the experimental scheme, contained the compounds under study (100 μM), rat brain homogenate (2 mg/mL), as well as ferrous iron ions ([…]) at a concentration of 500 μM and 1.6 mM tert-butyl hydroxyperoxide as an initiator. After 30 min of incubation at 37 °C, TBARS reagent was added to all samples, incubated for 90 min at 90 °C, and centrifuged at 6000 rpm for 15 min. The optical density of the selected supernatant was measured on a Victor 3 plate reader (Perkin Elmer) at λ = 540 nm.
# A rat brain homogenate preparation containing fragments of cell membranes was used as a model system to investigate the antioxidant activity of the hydroxamic acids. To initiate the process of lipid peroxidation, ferrous ions were used to trigger the Fenton reaction, during which the iron valence changes and a highly reactive hydroxyl radical is formed, and tert-butyl hydroxyperoxide as a direct source of free radicals.
# HEK 293 cells = assay: MTT cell viability, HEK 293; assay type: cell-based; settings: Homo sapiens, HEK293; HEK-293, MTT test
# Procedure: as §3, §4
melting point,IC50 (SH-SY5Y cells),IC50 (HDAC6),SMILES,Effect on β-amyloid 1–40 aggregation (β-amyloid 1–40),"% of Activity, Antiradical Activity [1]",Effect on β-amyloid 1–42 aggregation (β-amyloid 1–42),"% of Activity, Inhibition of LPO, Fe (II) [2]","% of Activity, Inhibition of LPO, t-BHP [2]",IC50 (HEK 293 cells)
202.5 °C,64.2 ± 4.1 µM,18 ± 1.02 µM,"CC1(C)[C@@H]2CCC1(C)[C@H](NC(=O)/C=C/c1ccc(C(=O)NO)cc1)C2 [compound 23, N-Hydroxy-4-((E)-3-Oxo-3-(((2R,4R)-1,7,7-Trimethylbicyclo[2.2.1]heptan-2-yl)amino)prop-1-en-1-yl)benzamide]",noticeable fibrillation inhibition,20.14 ± 1.28%,noticeable fibrillation inhibition,32.91 ± 1.12%,18.26 ± 4.90%,68.3 ± 2.22 µM
133.2 °C,> 100 µM,0.74 ± 0.01 µM,"O=C(CCCCCCCC(=O)NC1C2CC3CC(C2)CC1C3)NO (stereo not drawn) [compound 16, N^1-(Adamantan-2-yl)-N^9-Hydroxynonanediamide]",noticeable fibrillation inhibition,- (The ‘-’ mark indicates the lack of activity of the test substances (≤10%) in a particular test),noticeable fibrillation inhibition,26.41 ± 2.58%,16.27 ± 0.42%,49.5 ± 3.43 µM
